From patent US20240415918A1, “Polypeptide and its use as a CCK receptor agonist/antagonist” (Centre for Regenerative Medicine & Health, Hong Kong …, priority 2021, published 2024)
Like-named read-outs stand apart in the source and are kept apart here. Each block holds one molecule with its values, some of them ahead of it. Where a SMILES comes first, the peptide text is derived from it. [ ]: non-standard residue; d: D form. Phe(3-Br) = N[C@@H](Cc1cccc(Br)c1)C(=O)O; dGly(nOct) = CCCCCCCC[C@@H](N)C(=O)O; dAoc(2) = CCCCCC[C@@H](N)C(=O)O; Nle = CCCC[C@H](N)C(=O)O

Key:
senile wild-type mice = assay: Morris water maze, senile wild-type mice; format: in vivo, mice (C57BL/6); conditions: intraperitoneal injection
[1] = system: tri-transgenic Alzheimer's mice (3×Tg-AD); assay: Morris water maze, Alzheimer's mice; format: in vivo; conditions: intraperitoneal injection
Description: Adult male tri-transgenic Alzheimer's mice (3×Tg-AD) were housed under standard conditions with free access to food and water. Our Morris water maze experiment for testing Alzheimer's mice mainly included two parts: positioning navigation experiment and space exploration experiment. The positioning navigation experiment lasted for 8-10 days, and the mice were put into the water four times a day from four entry points facing the pool wall, and the time they spent in finding the hidden platform under the water surface (evasion latency) was recorded. The space exploration experiment was to remove the platform after the positioning navigation experiment, and then put the mice into the pool, record their swimming tracks within one minute, investigate the memory of the mice on the original platform, and calculate the proportion of exploration duration of the mice in the quadrant where the original platform was located (target quadrant). Alzheimer's mice were confirmed to have memory deficiency in the Morris water maze experiment, showing not only a longer evasion latency for positioning the hidden platform in the positioning navigation experiment, but also a worse memory backtracking ability in the space exploration experiment. We randomized Alzheimer's mice into four groups, with the first group given intraperitoneal injection of the CCK4 solution, the second group given intraperitoneal injection of the solvent of CCK4 solution as a control, the third group given intraperitoneal injection of the compound HT-267 solution, and the fourth group given intraperitoneal injection of the solvent of HT-267 solution as a control.

memory-deficient mice [2] = assay: Morris water maze, memory-deficient mice; format: in vivo; conditions: intraperitoneal injection, CCK4 four times a day 10 days, HT compounds once a day 8 days
Description: Adult memory-deficient mice were housed under standard conditions with free access to food and water. Our Morris water maze experiment for testing memory-deficient mice mainly included two parts: positioning navigation experiment and space exploration experiment. The experimental methods were the same as Example 5. We randomized memory-deficient mice into six groups, with the first group given intraperitoneal injection of the CCK4 solution, the second group given intraperitoneal injection of the solvent of CCK4 solution as a control, the third group given intraperitoneal injection of the compound HT-267 solution, the fourth group given intraperitoneal injection of the compound HT-177 solution, the fifth group given intraperitoneal injection of the compound HT-178 solution, and the sixth group given intraperitoneal injection of the solvent of compound solution as a control. In the positioning navigation experiment, the treatment and training methods of the first and the second groups were the same as those of the first and second groups in Example 5, that is, four times of treatment a day, four times of training a day, for a total of 10 days of training. The treatment and training methods of the third to sixth groups were the same as the third and fourth groups in Example 5, that is, one treatment a day, four times of training a day, for a total of 8 days of training. In the space exploration experiment, the spatial memory ability of mice was tested in the same way for each group.

[3] = male, KM, mouse, in vivo, iv, 1 mg/kg
[4] = mouse, in vivo; cited from earlier work
[5] = biological target: T1, CCK-B receptors (CHO-CCK) (Homo sapiens, UniProt P32239); assay: Calcium flux (Fluo-8) agonist test on CHO-CCK model cells; format: cell-based; conditions: CHO-CCK cells
T1 construct: expressed in transfected cells; host or cells: CHO (CHO-CCK model cells)
T1 sequence (P32239 1-447): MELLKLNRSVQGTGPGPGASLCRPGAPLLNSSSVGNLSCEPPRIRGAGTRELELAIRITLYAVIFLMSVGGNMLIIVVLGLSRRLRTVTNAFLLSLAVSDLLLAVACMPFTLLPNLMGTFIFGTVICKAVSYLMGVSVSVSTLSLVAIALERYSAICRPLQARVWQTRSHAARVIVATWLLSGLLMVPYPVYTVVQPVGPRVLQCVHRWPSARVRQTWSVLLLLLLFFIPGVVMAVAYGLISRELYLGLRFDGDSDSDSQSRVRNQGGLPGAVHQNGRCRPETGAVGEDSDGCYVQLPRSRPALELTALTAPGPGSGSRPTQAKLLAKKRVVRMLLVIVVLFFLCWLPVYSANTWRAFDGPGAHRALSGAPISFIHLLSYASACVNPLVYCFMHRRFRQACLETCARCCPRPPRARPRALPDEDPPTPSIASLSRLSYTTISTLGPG
In short: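 Agonist-mode Fluo-8 calcium flux read on CHO-CCK cells after dye loading 30 min at 37 °C plus 30 min at room temperature.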

[6] = biological target: T1, CCK-B receptors (CHO-CCK); assay: Calcium flux (Fluo-8) antagonist test on CHO-CCK model cells in presence of CCK8; format: cell-based
memory-deficient mice [7] = assay: New object recognition experiment, memory-deficient mice; format: in vivo; conditions: intraperitoneal injection
Description: The new object recognition experiment is a highly validated method of cognitive memory, designed by Ennaceur & Delacour (1988) based on the exploration characteristics of rodents to new environments, and this model evaluates the memory function of the tested animal based on the length of time that the animal spends in exploring familiar objects it has seen in the environment and new objects it has not seen. […] The experiment is usually divided into three stages: 1. Adaptation period: let the animal be familiar with the experimental environment, and no objects are placed in the experimental box; 2. Familiarization period: place two identical objects in the experimental box and let the mice explore freely for 10 minutes; 3. Test period: put a new object in the experimental box to replace one of the old objects, and the positions of the objects remain unchanged. The exploration of mice was recorded with video, and the time spent in exploring the old and new objects by mice was analyzed, and the proportion of time spent in exploring the new object by mice in the test period accounting for the total time for exploring the objects was calculated, that is, the recognition index of new objects.
Adult memory-deficient mice were housed under standard conditions with free access to food and water. Our new object recognition experiment for testing memory-deficient mice mainly included the adaptation period, the familiarization period, and the test period. The experimental method was the same as Example 12.
We randomized memory-deficient mice into four groups, with one group given intraperitoneal injection of the solvent of drug as the control group, administration group 1 given intraperitoneal injection of the compound HT-267 solution, administration group 2 given intraperitoneal injection of the compound HT-177 solution, and administration group 3 given intraperitoneal injection of the compound HT-178 solution. After the adaptation and familiarization period training, we tested the recognition memory of several groups of mice in the test period experiment.

[8] = system: neocortex of memory-deficient mice; assay: Long-term potentiation, in vitro field potential recording of brain slices (MED64), memory-deficient mice; format: cell-based; conditions: compound injected for five minutes
Description: An in vitro electrophysiological electrical signal recording method was used to investigate whether compound HT-267, compound HT-177, and compound HT-178 can induce long-term potentiation in the neocortex of memory-deficient mice. The MED64 low-noise multi-electrode recording system was used to record the electrical signals of brain slices cultured in vitro.

[9] = system: CCK-B receptor carrying green fluorescence; conditions: intraperitoneal injection, visual cortex imaging
in vivo = conditions: male, KM, mouse, iv, 1 mg/kg, T1/2
[10] = Pharmacokinetics in KM mice after intravenous administration; conditions: male, mouse, plasma, 1 mg/kg
[11] = compound alone, 100% = 20 nM CCK8
[12] = compound together with 10 nM CCK8
[13] = Fluo-8 calcium flux, 100% control = 20 nM CCK8
[14] = in presence of 10 nM CCK8, bound in μM

SMILES: CSCC[C@H](NC(=O)[C@@H](N)Cc1c[nH]c2ccccc12)C(=O)N[C@@H](CC(=O)O)C(=O)N[C@@H](Cc1ccccc1)C(N)=O [CCK4, Trp-Met-Asp-Phe-NH2, reference compound]
evasion latency in positioning navigation experiment vs control (senile wild-type mice): shorter than that of the control group | spatial exploration tracks in space exploration experiment (senile wild-type mice): more spatial exploration tracks at the original position of the platform | proportion of exploration duration in the target quadrant vs control [1]: significantly higher than the control group | spatial exploration tracks in space exploration experiment [1]: more spatial exploration tracks at the original position of the platform | evasion latency in positioning navigation experiment vs control ([1]; CCK4 four times a day 10 days, HT-267 once a day 8 days): shorter than that of the control group | proportion of exploration duration in the target quadrant vs control (memory-deficient mice [2]): significantly higher than that in the control group | concentration in blood samples (below detection limitation) [3]: < 50 ng/mL | half-life [4]: less than 5 minutes

SMILES: CCCC[C@H](NC(=O)[C@H](Cc1c[nH]c2ccccc12)NC(C)=O)C(=O)N[C@@H](CC(=O)O)C(=O)N[C@@H](Cc1cccc(Br)c1)C(N)=O [HT-177, Ac-Trp-Nle-Asp-Phe(3-Br)-NH2] (Ac-W[Nle]D[Phe(3-Br)]-NH2)
agonistic/antagonistic activity on CCK-B receptors (in words) ([5]; calcium signal): more active | EC50 [5, 11]: 5.6e-05 µM | EC50 [6, 12]: 0.279 µM | proportion of exploration duration in the target quadrant vs control (memory-deficient mice [2]): significantly higher than that in the control group | recognition index of new objects vs control (memory-deficient mice [7]): significantly higher than that of the control group | basal field potential after administration (long-term potentiation) [8]: enhanced, and the enhancement lasted for more than one hour | blood-brain barrier crossing / green fluorescence signal of CCK-B receptor sensor [9]: crossed the blood-brain barrier and was bound to the CCK-B receptor | half-life (in vivo): 43.3 min | AUC(0-inf) [10]: 641 ng·h/mL | Cmax [10]: 403 ng/mL | Tmax [10]: 15 min

SMILES: CCCC[C@H](NC(=O)[C@@H](Cc1c[nH]c2ccccc12)NC(C)=O)C(=O)N[C@@H](CC(=O)O)C(=O)N[C@@H](Cc1cccc(Br)c1)C(N)=O [HT-178, Ac-D-Trp-Nle-Asp-Phe(3-Br)-NH2] (Ac-[dW][Nle]D[Phe(3-Br)]-NH2)
EC50 [5, 11]: 0.00281 µM | EC50 [6, 12]: 0.528 µM | proportion of exploration duration in the target quadrant vs control (memory-deficient mice [2]): significantly higher than that in the control group | recognition index of new objects vs control (memory-deficient mice [7]): significantly higher than that of the control group | basal field potential after administration (long-term potentiation) [8]: enhanced, and the enhancement lasted for more than one hour

SMILES: CCCCCC[C@@H](NC(C)=O)C(=O)N[C@@H](CCCC)C(=O)N[C@@H](CCC(=O)O)C(=O)N[C@@H](Cc1cccc(Br)c1)C(N)=O [HT-263, Ac-Oa-Nle-Glu-Phe(3-Br)-NH2] (Ac-[dAoc(2)][Nle]E[Phe(3-Br)]-NH2)
EC50 [5, 13]: 64.5 µM | EC50 [6, 14]: > 10 µM

Other lines, results leading:

EC50 [5, 13]: 11 µM | EC50 [6, 14]: > 10 µM
SMILES: CCCCCCC[C@@H](NC(C)=O)C(=O)N[C@@H](CCCC)C(=O)N[C@@H](CCC(=O)O)C(=O)N[C@@H](Cc1cccc(Br)c1)C(N)=O [HT-264, Ac-Na-Nle-Glu-Phe(3-Br)-NH2]

EC50 [5, 13]: 13 µM | EC50 [6, 14]: > 10 µM
SMILES: CCCCCCCC[C@@H](NC(C)=O)C(=O)N[C@@H](CCCC)C(=O)N[C@@H](CCC(=O)O)C(=O)N[C@@H](Cc1cccc(Br)c1)C(N)=O [HT-265, Ac-Da-Nle-Glu-Phe(3-Br)-NH2] (Ac-[dGly(nOct)][Nle]E[Phe(3-Br)]-NH2)

EC50 [5, 13]: 0.0402 µM | EC50 ([6]; in presence of 10 nM CCK8): 1.29 µM
SMILES: CCCCCCCCCCCCCC[C@@H](NC(C)=O)C(=O)N[C@@H](CCCC)C(=O)N[C@@H](CCCCCC)C(=O)N[C@@H](Cc1cccc(Br)c1)C(N)=O [HT-266, Ac-Ha-Nle-Oa-Phe(3-Br)-NH2]
